Measurements taken from patent US11505536B2, “Dihydroorotate dehydrogenase inhibitors” (Janssen Biotech, Inc., priority 2019, dated 2022).

Tests used:
[1] = tested on: MOLM-13 cells (human acute myeloid leukemia cells); assay: MOLM-13 Cellular Assay; type: cell-based; settings: Homo sapiens, MOLM-13, 72 h, 72 hours exposure, cell viability by CellTiter-Glo
Procedure: The following assay is referred to herein as the “MOLM-13 Cellular Assay.” MOLM-13 cells (human acute myeloid leukemia cells) were obtained from DSMZ and were maintained in RPMI 1640+Glutamax+25 mM HEPES (Invitrogen, catalog number 72400) supplemented with 10% heat inactivated fetal bovine serum (FBS; Invitrogen, catalog number 16140). The day prior to assay set-up, cells were pelleted, resuspended in fresh media, counted, and cells were plated at 0.4×10^6 cell/mL in a T150 flask. On the day of the assay, cells were pelleted, resuspend in fresh media, counted and seeded at 5,000 cells/well in white opaque 96-well tissue culture treated microplates (Perkin Elmer, catalog number 6005680). Cells were exposed to different concentrations of test compounds at 37° C., 5% CO2 for 72 hours immediately after seeding. Cell viability was acquired on a Perkin Elmer Envision 2104 multilabel reader using the CellTiter-Glo assay (Promega) according to the manufacturer's instructions.

human DHODH = human DHODH (Homo sapiens (Human), UniProt Q02127); assay: DHODH Enzymatic Assay; type: biochemical; settings: purified human DHODH, DCIP absorbance, end-point mode; read-out: hDHODH IC50
human DHODH, sequence (Q02127 whole entry): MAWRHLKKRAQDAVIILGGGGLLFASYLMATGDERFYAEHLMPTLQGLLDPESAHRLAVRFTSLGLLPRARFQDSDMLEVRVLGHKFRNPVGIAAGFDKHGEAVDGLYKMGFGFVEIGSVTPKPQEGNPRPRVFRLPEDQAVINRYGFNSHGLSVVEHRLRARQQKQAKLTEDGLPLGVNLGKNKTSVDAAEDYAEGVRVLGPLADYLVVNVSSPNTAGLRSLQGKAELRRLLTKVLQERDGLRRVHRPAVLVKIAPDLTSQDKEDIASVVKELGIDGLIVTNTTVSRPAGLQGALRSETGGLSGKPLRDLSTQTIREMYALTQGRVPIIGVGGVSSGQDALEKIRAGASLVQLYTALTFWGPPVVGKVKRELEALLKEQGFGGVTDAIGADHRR
Procedure: The following assay is referred to herein as the “DHODH Enzymatic Assay.” To detect DHODH enzyme activities, dichloroindophenol (DCIP) is added as the final electron acceptor in the assay. DCIP can accept electrons from the reduced coenzyme Q generated in the assay, or from dihydroorotate (DHO) via FMN by binding presumably to the ubiquinone pocket. DCIP solutions are blue, with an intense absorbance around 600 nm, but becomes colorless upon reduction (J. Biol. Chem. (1986) 261, 11386). The assay buffer contained […], pH 7.5, 150 mM NaCl, 0.5 mM EDTA, and 0.1% Triton X-100 in MilliQ water. Substrate consisting of 20 mM DHO, 5 mM CoQ6, and 1 mM DCIP in assay buffer, initiates the reaction. The assay is run in end-point mode by quenching the reaction with the potent DHODH inhibitor brequinar. Absorbance measurements were obtained using the BMG Phera Star plate-reading spectrophotomer. Purified human DHODH was purchased from Proteros (cat. No. PR-0044). Chemicals were purchased from Sigma-Aldrich, Teknova, and Avanti Polar Lipids. Liquid handling was performed using Labcyte Echo and Formulatrix Tempest.

Row | SMILES | IC50 [1] | IC50 (human DHODH)
1 | CCn1c(CO)nn(-c2cc3c(C(C)C)cn([C@H]4CCC[C@H]4C)c(=O)c3cc2F)c1=O (stereo in doubt) [Example 126, 6-(4-Ethyl-3-(hydroxymethyl)-5-oxo-4,5-dihydro-1H-1,2,4-triazol-1-yl)-7-fluoro-4-isopropyl-2-((1S*,2R*)-2-methylcyclopentyl)isoquinolin-1(2H)-one] | 1 nM | 1.32 nM
2 | C=C(C)c1cn(-c2cccc(F)c2)c(=O)c2ccc(-n3nc(CO)n(CC)c3=O)cc12 [Example 1, 6-(4-Ethyl-3-(hydroxymethyl)-5-oxo-4,5-dihydro-1H-1,2,4-triazol-1-yl)-2-(3-fluorophenyl)-4-(prop-1-en-2-yl)isoquinolin-1(2H)-one] | 6 nM | 9.89 nM
3 | CCn1c(CO)nn(-c2ccc3c(=O)n(-c4cccc(F)c4)cc(C(C)C)c3c2)c1=O [Example 2, 6-(4-Ethyl-3-(hydroxymethyl)-5-oxo-4,5-dihydro-1H-1,2,4-triazol-1-yl)-2-(3-fluorophenyl)-4-isopropylisoquinolin-1(2H)-one] | 40 nM | 75.9 nM
4 | CCn1c(CO)nn(-c2ccc3c(=O)n(-c4c(F)cccc4Cl)cc(C(C)C)c3c2)c1=O [Example 3, 2-(2-Chloro-6-fluorophenyl)-6-(4-ethyl-3-(hydroxymethyl)-5-oxo-4,5-dihydro-1H-1,2,4-triazol-1-yl)-4-isopropylisoquinolin-1(2H)-one] | 2 nM | 3.46 nM
5 | CCn1c(CO)nn(-c2ccc3c(=O)n(-c4cccc(F)c4)cc(-c4ccccc4)c3c2)c1=O [Example 4, 6-(4-Ethyl-3-(hydroxymethyl)-5-oxo-4,5-dihydro-1H-1,2,4-triazol-1-yl)-2-(3-fluorophenyl)-4-phenylisoquinolin-1(2H)-one] | 100 nM | 177 nM
6 | C=C(C)c1cn(-c2c(F)cccc2Cl)c(=O)c2ccc(-n3nc(CO)n(CC)c3=O)cc12 [Example 5, 2-(2-Chloro-6-fluorophenyl)-6-(4-ethyl-3-(hydroxymethyl)-5-oxo-4,5-dihydro-1H-1,2,4-triazol-1-yl)-4-(prop-1-en-2-yl)isoquinolin-1(2H)-one] | 0.9 nM | 1.29 nM
7 | C=C(c1cn(-c2c(F)cccc2Cl)c(=O)c2ccc(-n3nc(CO)n(CC)c3=O)cc12)C(F)(F)F [Example 6, 2-(2-Chloro-6-fluorophenyl)-6-(4-ethyl-3-(hydroxymethyl)-5-oxo-4,5-dihydro-1H-1,2,4-triazol-1-yl)-4-(3,3,3-trifluoroprop-1-en-2-yl)isoquinolin-1(2H)-one] | 1 nM | 1.94 nM
8 | CCn1c(CO)nn(-c2ccc3c(=O)n(-c4c(Cl)cccc4Cl)cc(C4(C)CC4)c3c2)c1=O [Example 7, 2-(2,6-Dichlorophenyl)-6-(4-ethyl-3-(hydroxymethyl)-5-oxo-4,5-dihydro-1H-1,2,4-triazol-1-yl)-4-(1-methylcyclopropyl)isoquinolin-1(2H)-one] | 2 nM | 0.965 nM
9 | C=C(C)c1cn(-c2c(Cl)cccc2Cl)c(=O)c2ccc(-n3nc(CO)n(CC)c3=O)cc12 [Example 8, 2-(2,6-Dichlorophenyl)-6-(4-ethyl-3-(hydroxymethyl)-5-oxo-4,5-dihydro-1H-1,2,4-triazol-1-yl)-4-(prop-1-en-2-yl)isoquinolin-1(2H)-one] | 0.7 nM | 0.839 nM
10 | CCn1c(CO)nn(-c2ccc3c(=O)n(-c4c(F)cccc4Cl)cc(C4CC4)c3c2)c1=O [Example 9, 2-(2-Chloro-6-fluorophenyl)-4-cyclopropyl-6-(4-ethyl-3-(hydroxymethyl)-5-oxo-4,5-dihydro-1H-1,2,4-triazol-1-yl)isoquinolin-1(2H)-one] | 5 nM | 11.5 nM
11 | CCn1c(CO)nn(-c2ccc3c(=O)n(-c4c(F)cccc4Cl)ccc3c2)c1=O [Example 10, 2-(2-Chloro-6-fluorophenyl)-6-(4-ethyl-3-(hydroxymethyl)-5-oxo-4,5-dihydro-1H-1,2,4-triazol-1-yl)isoquinolin-1(2H)-one] | 100 nM | 344 nM
